Each block holds one molecule with its values, some of them ahead of it.
Tests used:
[1] = Chromatographic hydrophobicity index, log D of the compound at pH 7.4 by HPLC method; type: physicochemical; settings: buffer
hERG (KCNH2) = hERG (KCNH2) (Homo sapiens, UniProt Q12809); assay: in vitro; settings: CHO-K1 cells expressing human ERG
CYP3A4 = CYP3A4 (Homo sapiens, UniProt P08684); assay: in vitro; settings: human CYP3A4 supersomes
MDA-MB-231 = assay: cells; settings: Homo sapiens, MDA-MB-231, 72 h
[2] = Drug metabolism in CD-1 mouse hepatocytes assessed as oxidation metabolite formation at 10 uM up to 90 mins by LC-MS analysis; type: ADME, cell-based, Hepatocyte
[3] = Stability in cynomolgus monkey liver microsomes at 10 uM up to 90 mins in presence of NADPH by LC/MS analysis; type: ADME, Macaca fascicularis, microsome
[4] = Cmax in cynomolgus monkey at 5 mg/kg, po by UHPLC and ESI mass spectrometry; type: ADME, organism-based, Macaca fascicularis; parameters: dose 5 mg/kg, route oral; settings: in vivo
[5] = Drug metabolism in Sprague-Dawley rat hepatocytes assessed as 2-((R)-1-amino-3-((R)-3-methylmorpholino)propan-2-ylamino)-1-(6-(4-fluorobenzyl)-3,3-dimethyl-2,3-dihydro-1H-pyrrolo[3,2-b]pyridin-1-yl)ethanone formation at 10 uM up to 90 mins by LC-MS analysis; type: ADME, cell-based, Hepatocyte
[6] = Plasma clearance in Sprague-Dawley rat at 1 mg/kg, iv or 5 mg/kg, po by UHPLC and ESI mass spectrometry; type: ADME, organism-based
[7] = Drug metabolism in Sprague-Dawley rat hepatocytes assessed as 1-(6-(4-fluorobenzyl)-3,3-dimethyl-2,3-dihydro-1H-pyrrolo[3,2-b]pyridin-1-yl)-2-((2S,5R)-2-((2-hydroxyethylamino)methyl)-5-methylpiperazin-1-yl)ethanone formation at 10 uM up to 90 mins by LC-MS analysis; type: ADME, cell-based, Hepatocyte
[8] = Drug metabolism in Sprague-Dawley rat hepatocytes assessed as 2-((2S,5R)-2-(aminomethyl)-5-methylpiperazin-1-yl)-1-(6-(4-fluorobenzyl)-3,3-dimethyl-2,3-dihydro-1H-pyrrolo[3,2-b]pyridin-1-yl)ethanone formation at 10 uM up to 90 mins by LC-MS analysis; type: ADME, cell-based, Hepatocyte
[9] = Drug metabolism in human hepatocytes assessed as oxidation metabolite formation at 10 uM up to 90 mins by LC-MS analysis; type: ADME, cell-based, Hepatocyte
[10] = Drug metabolism in Sprague-Dawley rat hepatocytes assessed as oxidation metabolite formation at 10 uM up to 90 mins by LC-MS analysis; type: ADME, cell-based, Hepatocyte
[11] = Permeability in human Caco2 cells at 10 uM after 1 hr; type: ADME, cell-based; settings: Caco-2, read-out: permeability
in vivo [12] = settings: cynomolgus monkey, po, 5 mg/kg
[13] = Cmax in Sprague-Dawley rat at 5 mg/kg, po by UHPLC and ESI mass spectrometry; type: ADME, organism-based; parameters: dose 5 mg/kg, route oral; settings: in vivo
in vivo [14] = settings: cynomolgus monkey, plasma, iv, 1 mg/kg
[15] = Drug metabolism in cynomolgus monkey hepatocytes assessed as oxidation metabolite formation at 10 uM up to 90 mins by LC-MS analysis; type: ADME, cell-based, Macaca fascicularis, Hepatocyte
[16] = Oral bioavailability in Sprague-Dawley rat at 5 mg/kg by UHPLC and ESI mass spectrometry; type: ADME, organism-based; settings: in vivo
Cynomolgus monkey [17] = assay: Plasma clearance in cynomolgus monkey at 1 mg/kg, iv or 5 mg/kg, po relative to liver blood flow; type: ADME, organism-based, Macaca fascicularis; settings: in vivo
in vivo [18] = settings: cynomolgus monkey, iv, 1 mg/kg
[19] = Volume of distribution at steady state in Sprague-Dawley rat at 1 mg/kg, iv or 5 mg/kg, po by UHPLC and ESI mass spectrometry; type: ADME, organism-based; settings: in vivo, read-out: Vdss
[20] = Cmax in Balb/c mouse at 10 mg/kg, po by UHPLC and ESI mass spectrometry; type: ADME, organism-based; parameters: dose 10 mg/kg, route oral; settings: in vivo
[21] = Volume of distribution at steady state in Balb/c mouse at 5 mg/kg, iv or 10 mg/kg, po by UHPLC and ESI mass spectrometry; type: ADME, organism-based; settings: in vivo, read-out: Vdss
in vivo [22] = settings: cynomolgus monkey, po, 60 mg/kg
[23] = Oral bioavailability in Balb/c mouse at 10 mg/kg by UHPLC and ESI mass spectrometry; type: ADME, organism-based; settings: in vivo
Cynomolgus monkey [24] = assay: Cardiotoxicity in cynomolgus monkey assessed as effect on QT interval at 100 mg/kg, po administered as single dose; type: toxicity, organism-based, Macaca fascicularis; settings: in vivo
[25] = Plasma clearance in Sprague-Dawley rat at 5 mg/kg, iv or 10 mg/kg, po by UHPLC and ESI mass spectrometry; type: ADME, organism-based
[26] = Oral bioavailability in Sprague-Dawley rat at 10 mg/kg by UHPLC and ESI mass spectrometry; type: ADME, organism-based; settings: in vivo
[27] = Cmax in Sprague-Dawley rat at 10 mg/kg, po by UHPLC and ESI mass spectrometry; type: ADME, organism-based; parameters: dose 10 mg/kg, route oral; settings: in vivo
[28] = Volume of distribution at steady state in Sprague-Dawley rat at 5 mg/kg, iv or 10 mg/kg, po by UHPLC and ESI mass spectrometry; type: ADME, organism-based; settings: in vivo, read-out: Vdss
[29] = Plasma clearance in Balb/c mouse at 5 mg/kg, iv or 10 mg/kg, po by UHPLC and ESI mass spectrometry; type: ADME, organism-based
[30] = Drug level in cynomolgus monkey hepatocytes treated with 1-(6-(4-fluorobenzyl)-3,3-dimethyl-2,3-dihydro-1H-pyrrolo[3,2-b]pyridin-1-yl)-2-((2R,5R)-5-methyl-2-(((R)-3-methylmorpholino)methyl)piperazin-1-yl)ethanone at 10 uM up to 90 mins by LC-MS analysis; type: ADME, cell-based, Macaca fascicularis, Hepatocyte
[31] = Drug level in CD-1 mouse hepatocytes treated with 1-(6-(4-fluorobenzyl)-3,3-dimethyl-2,3-dihydro-1H-pyrrolo[3,2-b]pyridin-1-yl)-2-((2R,5R)-5-methyl-2-(((R)-3-methylmorpholino)methyl)piperazin-1-yl)ethanone at 10 uM up to 90 mins by LC-MS analysis; type: ADME, cell-based, Hepatocyte
[32] = Drug level in human hepatocytes treated with 1-(6-(4-fluorobenzyl)-3,3-dimethyl-2,3-dihydro-1H-pyrrolo[3,2-b]pyridin-1-yl)-2-((2R,5R)-5-methyl-2-(((R)-3-methylmorpholino)methyl)piperazin-1-yl)ethanone at 10 uM up to 90 mins by LC-MS analysis; type: ADME, cell-based, Hepatocyte
[33] = Oral bioavailability in Balb/c mouse at 5 mg/kg by UHPLC and ESI mass spectrometry; type: ADME, organism-based; settings: in vivo

CYP3A4, sequence (P08684 whole entry): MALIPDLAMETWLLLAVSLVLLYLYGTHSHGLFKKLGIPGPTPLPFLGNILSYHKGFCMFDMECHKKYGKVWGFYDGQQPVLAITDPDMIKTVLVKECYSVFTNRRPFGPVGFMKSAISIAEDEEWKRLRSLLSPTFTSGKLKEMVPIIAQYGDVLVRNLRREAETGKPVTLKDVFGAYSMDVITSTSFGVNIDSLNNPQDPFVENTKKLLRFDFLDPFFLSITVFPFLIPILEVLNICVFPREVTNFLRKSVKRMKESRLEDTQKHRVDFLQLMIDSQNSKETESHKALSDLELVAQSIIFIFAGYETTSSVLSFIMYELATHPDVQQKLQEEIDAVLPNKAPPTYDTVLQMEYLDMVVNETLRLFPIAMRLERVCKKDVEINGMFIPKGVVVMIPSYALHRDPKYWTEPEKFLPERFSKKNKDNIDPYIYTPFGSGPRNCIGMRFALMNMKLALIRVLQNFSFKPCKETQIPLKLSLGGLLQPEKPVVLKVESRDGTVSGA
hERG (KCNH2), sequence (Q12809 whole entry): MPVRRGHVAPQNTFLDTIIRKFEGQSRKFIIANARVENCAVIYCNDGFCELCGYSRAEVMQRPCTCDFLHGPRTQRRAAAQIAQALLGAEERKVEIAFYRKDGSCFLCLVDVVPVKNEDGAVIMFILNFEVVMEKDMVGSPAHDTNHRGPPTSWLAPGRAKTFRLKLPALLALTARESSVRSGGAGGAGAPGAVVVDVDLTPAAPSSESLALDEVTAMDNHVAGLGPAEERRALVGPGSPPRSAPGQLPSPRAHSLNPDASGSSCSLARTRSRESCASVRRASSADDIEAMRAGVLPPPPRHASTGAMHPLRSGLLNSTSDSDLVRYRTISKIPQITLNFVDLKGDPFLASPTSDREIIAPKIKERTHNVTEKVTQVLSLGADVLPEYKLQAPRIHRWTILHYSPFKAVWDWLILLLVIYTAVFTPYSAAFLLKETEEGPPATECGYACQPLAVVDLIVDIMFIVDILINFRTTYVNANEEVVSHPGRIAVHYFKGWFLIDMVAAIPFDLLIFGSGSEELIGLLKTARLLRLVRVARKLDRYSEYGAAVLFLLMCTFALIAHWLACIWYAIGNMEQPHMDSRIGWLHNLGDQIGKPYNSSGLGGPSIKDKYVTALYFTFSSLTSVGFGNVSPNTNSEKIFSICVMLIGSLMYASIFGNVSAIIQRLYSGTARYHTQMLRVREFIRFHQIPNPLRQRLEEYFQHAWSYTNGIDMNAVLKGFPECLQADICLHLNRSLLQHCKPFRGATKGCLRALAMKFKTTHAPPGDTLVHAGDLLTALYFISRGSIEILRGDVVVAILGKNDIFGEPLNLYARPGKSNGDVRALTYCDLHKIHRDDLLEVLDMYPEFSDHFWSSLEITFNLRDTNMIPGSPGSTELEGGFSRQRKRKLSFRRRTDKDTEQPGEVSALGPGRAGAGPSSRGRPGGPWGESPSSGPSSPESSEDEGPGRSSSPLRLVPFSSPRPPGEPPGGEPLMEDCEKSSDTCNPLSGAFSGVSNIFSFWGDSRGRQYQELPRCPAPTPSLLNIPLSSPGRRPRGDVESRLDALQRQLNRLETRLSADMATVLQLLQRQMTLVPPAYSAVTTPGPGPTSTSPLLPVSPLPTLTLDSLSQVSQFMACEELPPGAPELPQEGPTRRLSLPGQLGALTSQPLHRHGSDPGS

Compound: C[C@@H]1CN(CC(=O)N2CC(C)(C)c3c2cc(Cc2ccc(F)cc2)c(=O)n3C)[C@@H](CN2[C@H](C)COC[C@H]2C)CN1
- chromatographic logD [1]: 3.2

Compound: C[C@@H]1CN(CC(=O)N2CC(C)(C)c3nnc(Cc4ccc(F)cc4F)cc32)[C@@H](CN2Cc3ccc(F)cc3C2=O)CN1
- inhibition at 10 min, 30 µM (hERG (KCNH2)): 18%
- half-life at 40 min, 1 µM (CYP3A4): 41 min
- chromatographic logD [1]: 3.1
- IC50 (MDA-MB-231): 2.9 nM

Compound: C[C@@H]1CN(CC(=O)N2CC(C)(C)c3nnc(Cc4ccc(F)cc4F)cc32)[C@@H](CN2Cc3c(F)cccc3C2=O)CN1
- inhibition at 10 min, 30 µM (hERG (KCNH2)): 28%
- half-life at 40 min, 1 µM (CYP3A4): > 70 min
- chromatographic logD [1]: 2.7
- IC50 (MDA-MB-231): 0.59 nM

Compound: C[C@@H]1CN(CC(=O)N2CC(C)(C)c3nnc(Cc4ccc(F)cc4F)cc32)[C@@H](CN2Cc3ccccc3C2=O)CN1
- bioavailability [23]: 2%
- bioavailability [33]: 3%
- inhibition at 10 min, 30 µM (hERG (KCNH2)): 27%
- half-life at 40 min, 1 µM (CYP3A4): > 70 min
- bioavailability (in vivo [12]): 18%
- chromatographic logD [1]: 2.4
- IC50 (MDA-MB-231): 5.4 nM

Compound: C[C@@H]1CN(CC(=O)N2CC(C)(C)c3nnc(Cc4ccc(F)cc4)cc32)[C@@H](CN2Cc3ccccc3C2=O)CN1
- inhibition at 10 min, 30 µM (hERG (KCNH2)): 12%
- half-life at 40 min, 1 µM (CYP3A4): 38 min
- IC50 (MDA-MB-231): 16 nM

Continued, in another order:

- chromatographic logD [1]: 3.5
Compound: C[C@@H]1CN(CC(=O)N2CC(C)(C)c3nc(CO)c(Cc4ccc(F)cc4)cc32)[C@@H](CN2[C@H](C)COC[C@H]2C)CN1

- Drug metabolism [2]: Metabolite_Detected
- Stability [3]: Stable
- Cmax [4]: 22 ng/mL
- Drug metabolism [5]: Metabolite_Notdetected
- clearance [6]: 26 mL/min/kg
- Drug metabolism [7]: Metabolite_Notdetected
- Drug metabolism [8]: Metabolite_Notdetected
- Drug metabolism [9]: Metabolite_Detected
- Drug metabolism [10]: Metabolite_Notdetected
- Papp at 1 h, 10 µM [11]: 1.1 ×10⁻⁶ cm/s
- bioavailability (in vivo [12]): 2%
- Cmax [13]: 47 ng/mL
- clearance (in vivo [14]): 17 mL/min/kg
- Drug metabolism [15]: Metabolite_Detected
- bioavailability [16]: 24%
- CL (Cynomolgus monkey [17]): < 50%
- Vd (in vivo [18]): 3.7 L/kg
- Vd [19]: 12 L/kg
Compound: C[C@@H]1CN(CC(=O)N2CC(C)(C)c3ncc(Cc4ccc(F)cc4)cc32)[C@@H](CN2CCOC[C@H]2C)CN1

- Cmax [20]: 433 ng/mL
- Vd [21]: 2.7 L/kg
- bioavailability (in vivo [22]): 50%
- Cmax [4]: 137 ng/mL
- bioavailability [23]: 34%
- bioavailability (in vivo [12]): 12%
- chromatographic logD [1]: 3.1
- clearance [25]: 38 mL/min/kg
- bioavailability [26]: 29%
- clearance (in vivo [14]): 16 mL/min/kg
- Cmax [27]: 117 ng/mL
- Vd [28]: 9.3 L/kg
- clearance [29]: 41 mL/min/kg
- Vd (in vivo [18]): 6 L/kg
Compound: C[C@@H]1CN(CC(=O)N2CC(C)(C)c3nc(CO)c(Cc4ccc(F)cc4)cc32)[C@@H](CN2CCOC[C@H]2C)CN1 [ASTX-660]
- Activity (Cynomolgus monkey [24]): Non-Toxic

- Drug uptake [30]: Active
- Drug uptake [31]: Active
- Drug uptake [32]: Active
Compound: C[C@@H]1CN(CC(=O)N2CC(C)(C)c3ncc(Cc4ccc(F)cc4)cc32)[C@@H](CN)CN1

- Drug uptake [30]: Active
- Drug uptake [31]: Active
- Drug uptake [32]: Active
Compound: C[C@@H]1COCCN1C[C@@H](CN)NCC(=O)N1CC(C)(C)c2ncc(Cc3ccc(F)cc3)cc21
